Source: patent publication US7067520B2, “Preventive or therapeutic medicines for diabetes containing fused-heterocyclic compounds or their salts” (Ishihara Sangyo Kaisha, Ltd., priority 2000, dated 2006)
Blank lines part the entries; values can stand above or below the compound they belong to.

Tests used:
L6 cells = test: Glucose uptake test by L6 cells; type: cell-based; settings: Rattus norvegicus, 1 hour, 2-deoxy-[3H]-glucose uptake, control (MEM solvent alone) = 100%, read-out: Ratio activity (%); for activity at 10 µg/mL: treatment concentration 10 μg/ml; for activity at 100 µg/mL: treatment concentration 100 μg/ml
Method: Glucose Uptake Test by L6 Cells
Each of compounds under test was applied to L6 cells (rat cells originally derived from skeletal muscles) by the following method to measure the stimulating effect on glucose uptake. Namely, L6 cells were suspended in α-minimum essential medium (hereinafter referred to simply as MEM) containing 10% fetal bovine serum (hereinafter referred to simply as FBS), and inoculated into a 96-well plastic plate in an amount of 5×10^4 cells/well and cultivated in an incubator (5% carbon dioxide gas, 37° C.) until the cells grew all over the well. Then, the culture medium was switched to MEM solution containing 2% BS, followed by cultivation further for from 7 to 10 ays (the culture medium was exchanged every three days) to differentiate the cells into skeletal muscle cells. Then, the culture medium was replaced with MEM solution without FBS, followed by cultivation for three hours, and then the compound under test prepared to a treatment concentration (diluted with MEM solution without FBS) was reacted with the skeletal muscle cells at 37° C. for 1 hour. The cells were washed with Krebs-Henseleit-Ringer buffer solution (hereinafter referred to simply as KHR buffer solution), and 2-deoxy-[^3H]-glucose was added to the cells in the KHR buffer solution, followed by treatment at 37° C. for 10 minutes. The treatment solution was removed, the cells were washed with the KHR buffer solution, then the cells were dissolved in a 1N sodium hydroxide solution in an appropriate amount, and the [^3H] radio activity was measured by means of a liquid scintillation counter (cpm) The percentage of the glucose uptake was represented by the percentage of radio activity when the compound under test was applied, taking the radio activity of the control (the MEM solvent alone was applied) as 100%. Each of the compounds as identified in Table 27 was used for treatment at a concentration of each of 10 μg/ml and 100 μg/ml to examine the stimulating effect on glucose uptake.

KK-Ay/Ta mice = test: Test for hypoglycemic effect in KK-Ay/Ta mice; type: in vivo; settings: 50 mg/kg single oral dose, percentage to level before administration, significant vs vehicle control (P≦0.05)
Method: Using KK-Ay/Ta mice (purchased from CLEA Japan, Inc.) as spontaneous diabetic type II, the hypoglycemic effect of each of compounds under test was confirmed by the following method.
Male KK-Ay/Ta mice sufficiently preliminarily bred and acclimatized were classified into groups, each consisting of six mice, and each of the compounds under test was administered. Each of the compounds under test as suspended in 0.5% carboxymethyl cellulose (manufactured by Nacalai Tesque), and each compound was orally administered singly in a dose of 50 mg/kg (10 ml/kg) by means of an oral conductor. At the same time, as a group of vehicle control, 0.5% carboxymethyl cellulose was administered in the same volume (10 ml/kg) as for the group of administration of compound under test.
Collection of blood was carried out by the following method before the administration of each of the compounds under test or the vehicle, and at the time as identified in Table 28 after the administration. The tail vein of each mouse was shallowly cut by the edge of a razor to cause bleeding in an amount of blood of from 10 to 20 μL, and the blood was collected by a micropipet. The collected blood samples were immediately mixed with a heparin solution (20 U/ml) (manufactured by Mochida Yakuhin) in the same amount as the respective collected blood samples, and subjected to centrifugation at 4° C. for 5 minutes (10,000 rpm) by means of a cooling centrifugal machine. The plasma after the centrifugation was obtained as a sample for blood glucose level measurement.
The blood glucose level was measured by means of glucose oxidase method, and measured by using a commercially available assay kit (Glucose CII TEST WAKO, manufactured by Wako Pure Chemical Industries, Ltd.). Measurement was carried out on the day after the collection of blood, and the obtained plasma was stored at −20° C. before the measurement.
The blood glucose level at the time of collection of blood was calculated as the percentage to the blood glucose level before administration of the compound under test, and the hypoglycemic effect of the compound under test was evaluated by comparison with the change of the blood glucose level (percentage) of the group of vehicle control at the time of collection of blood. The evaluation results of the hypoglycemic effect are considered to have a significant difference compared with the vehicle control by means of Wilcoxon's rank sum test (P≦0.05)

- melting point: > 270 °C
Structure (SMILES): CSc1nc2ccnn2c(Nc2ccc([N+](=O)[O-])cc2)c1C#N [compound 200]
- activity at 10 µg/mL (L6 cells): > 115%
- activity at 100 µg/mL (L6 cells): > 115%
- Rate of change of blood glucose level (KK-Ay/Ta mice; after 3 hours): 79%

- melting point: 235 to 238 °C
Structure (SMILES): CSc1nc2cc(C)nn2c(Nc2cccc(C#N)c2)c1C#N [compound 186]
- activity at 10 µg/mL (L6 cells): > 115%
- activity at 100 µg/mL (L6 cells): > 115%
- Rate of change of blood glucose level (KK-Ay/Ta mice; after 3 hours): 80%

- melting point: 165 °C
Structure (SMILES): CSc1nc2ccnn2c(NCc2ccccc2)c1C#N [Compound No. 2, 7-benzylamino-5-methylthiopyrazolo[1,5-a]pyrimidine-6-carbonitrile]
- activity at 10 µg/mL (L6 cells): > 115%
- activity at 100 µg/mL (L6 cells): > 115%

- melting point: 121 to 122 °C
Structure (SMILES): CSc1nc2ccnn2c(NCC2CCCCO2)c1C#N (centres unmarked) [compound 11]
- activity at 10 µg/mL (L6 cells): > 115%

- melting point: 96 to 97 °C
Structure (SMILES): CSc1nc2ccnn2c(NCCC2OCCO2)c1C#N [compound 210]
- activity at 10 µg/mL (L6 cells): > 115%
- activity at 100 µg/mL (L6 cells): > 115%

- melting point: 125 °C
Structure (SMILES): N#Cc1cnc2ccnn2c1NCc1ccccc1 [compound 28]
- activity at 100 µg/mL (L6 cells): > 115%

- melting point: 201 to 202 °C
Structure (SMILES): CSc1nc2ccnn2c(Nc2ccccc2Cl)c1C#N [compound 163]
- activity at 10 µg/mL (L6 cells): > 115%

- melting point: 154 to 155 °C
Structure (SMILES): CSc1nc2ccnn2c(NCc2ccncc2)c1[N+](=O)[O-] [compound 126]
- activity at 10 µg/mL (L6 cells): > 115%

- melting point: 124.5 to 126.5 °C
Structure (SMILES): COC(=O)c1c(SC)nc2ccnn2c1NCc1ccccc1 [compound 120]
- activity at 10 µg/mL (L6 cells): > 115%

- melting point: 190 °C
Structure (SMILES): CSc1nc2ccnn2c(NCc2ccccn2)c1C#N [Compound No. 5]
- activity at 100 µg/mL (L6 cells): > 115%

- melting point: 172 °C
Structure (SMILES): CSc1nc2cc(-c3ccccc3)nn2c(NCc2ccccc2)c1C#N [compound 46]
- activity at 100 µg/mL (L6 cells): > 115%

The remaining lines, values behind:

Structure (SMILES): CSc1nc2ccnn2c(NCc2ccncc2)c1C#N [Compound No. 3, 7-(4-pyridylmethyl)amino-5-methylthiopyrazolo[1,5-a]pyrimidine-6-carbonitrile]
- melting point: 153 to 154 °C
- activity at 10 µg/mL (L6 cells): > 115%
- activity at 100 µg/mL (L6 cells): > 115%
- Rate of change of blood glucose level (KK-Ay/Ta mice; after 3 hours): 78%

Structure (SMILES): CSc1nc2ccnn2c(NCc2ccc(C)cc2)c1C#N [compound 50]
- melting point: 159 °C
- activity at 10 µg/mL (L6 cells): > 115%
- activity at 100 µg/mL (L6 cells): > 115%
- Rate of change of blood glucose level (KK-Ay/Ta mice; after 3 hours): 74%

Structure (SMILES): CSc1nc2ccnn2c(NCCC#N)c1C#N [compound 82]
- melting point: 188 °C
- activity at 10 µg/mL (L6 cells): > 115%

Structure (SMILES): CCOCNc1c(C#N)c(SC)nc2ccnn12 [compound 9]
- melting point: 132 to 133 °C
- activity at 10 µg/mL (L6 cells): > 115%
- activity at 100 µg/mL (L6 cells): > 115%

Structure (SMILES): CSc1nc2ccnn2c(NO)c1C#N [compound 205]
- melting point: 214 to 218 °C
- activity at 10 µg/mL (L6 cells): > 115%

Structure (SMILES): CSc1nc2ccnn2c(NCC2OCCO2)c1C#N [compound 8]
- melting point: 157 to 158 °C
- activity at 100 µg/mL (L6 cells): > 115%
- Rate of change of blood glucose level (KK-Ay/Ta mice; after 6 hours): 68%

Structure (SMILES): N#Cc1c(SCc2ccccc2)nc2ccnn2c1NCc1ccncc1 [compound 71]
- melting point: 187.8 to 189.2 °C (dec.)
- activity at 10 µg/mL (L6 cells): > 115%
- activity at 100 µg/mL (L6 cells): > 115%

Structure (SMILES): C=CCONc1c(C#N)c(SC)nc2ccnn12 [compound 174]
- melting point: 129 to 130 °C
- activity at 100 µg/mL (L6 cells): > 115%

Structure (SMILES): COc1nc2ccnn2c(NCc2ccccc2)c1C#N [compound 135]
- melting point: 148.8 to 149.6 °C
- activity at 10 µg/mL (L6 cells): > 115%
- activity at 100 µg/mL (L6 cells): > 115%

Structure (SMILES): CSc1nc2ccnn2c(NC2CCCC2)c1C#N [compound 79]
- melting point: 118 °C
- activity at 10 µg/mL (L6 cells): > 115%
